Data on 17 molecules can be found in patent publication US20240279240A1, “HETEROCYCLIC DERIVATIVES AS JANUS KINASE INHIBITORS” (CHIESI FARMACEUTICI S.P.A., priority 2021, published 2024).

The target of one assay is T1, JAK 3 (Homo sapiens, UniProt P52333).
T1 sequence (P52333 1-1124): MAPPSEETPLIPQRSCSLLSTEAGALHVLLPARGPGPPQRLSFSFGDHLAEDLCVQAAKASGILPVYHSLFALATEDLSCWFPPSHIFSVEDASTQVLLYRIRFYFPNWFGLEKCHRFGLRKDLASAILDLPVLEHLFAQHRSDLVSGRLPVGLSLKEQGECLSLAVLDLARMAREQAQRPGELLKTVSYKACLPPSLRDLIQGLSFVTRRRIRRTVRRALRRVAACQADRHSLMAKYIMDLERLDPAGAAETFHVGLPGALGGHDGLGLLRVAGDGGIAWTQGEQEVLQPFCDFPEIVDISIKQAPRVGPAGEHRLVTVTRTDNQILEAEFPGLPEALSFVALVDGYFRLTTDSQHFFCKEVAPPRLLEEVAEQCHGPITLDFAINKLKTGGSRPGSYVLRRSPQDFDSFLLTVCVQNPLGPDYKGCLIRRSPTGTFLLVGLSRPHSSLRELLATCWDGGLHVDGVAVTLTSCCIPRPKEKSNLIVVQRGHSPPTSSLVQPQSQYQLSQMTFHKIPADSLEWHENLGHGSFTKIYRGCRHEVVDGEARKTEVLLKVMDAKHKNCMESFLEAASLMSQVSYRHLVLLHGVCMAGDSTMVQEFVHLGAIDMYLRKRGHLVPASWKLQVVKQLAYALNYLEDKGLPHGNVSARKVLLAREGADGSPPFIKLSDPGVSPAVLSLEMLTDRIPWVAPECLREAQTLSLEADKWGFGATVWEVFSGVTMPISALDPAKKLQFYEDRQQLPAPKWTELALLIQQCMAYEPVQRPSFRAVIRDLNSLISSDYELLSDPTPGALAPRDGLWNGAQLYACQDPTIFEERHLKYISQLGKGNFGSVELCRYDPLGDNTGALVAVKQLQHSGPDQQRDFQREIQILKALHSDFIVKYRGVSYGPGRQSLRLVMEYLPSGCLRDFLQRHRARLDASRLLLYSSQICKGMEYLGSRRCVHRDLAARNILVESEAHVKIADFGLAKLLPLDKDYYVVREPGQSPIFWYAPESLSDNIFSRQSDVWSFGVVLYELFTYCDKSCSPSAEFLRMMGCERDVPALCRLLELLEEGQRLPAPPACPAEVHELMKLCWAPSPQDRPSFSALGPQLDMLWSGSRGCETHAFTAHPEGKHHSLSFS
Description: Biochemical potency on JAK3, TR-FRET LANCE Ultra kinase assay (examples 1-99). As to conditions: ATP at Km (0.2 μM), read-out: JAK3 inhibitory activity (pIC50 class) (converted). The gist of the method:
(§1)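 LANCE Ultra TR-FRET with ULight-JAK-1 (Tyr1023) peptide at 30/50/20/10 nM and ATP (~Km) at 20/0.7/0.2/12 μM for JAK1/JAK2/JAK3/TYK2; enzymes 0.15/0.083/0.025/0.144 ng/μL. 1.5 h at r.t., EDTA stop, Eu-anti-phosphotyrosine read. 11-point 5-fold series from 20 μM; IC50 by variable-slope fit.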

A further assay concerns the target TYK2 (Homo sapiens, UniProt P29597). Description: Biochemical potency on Tyk2, TR-FRET LANCE Ultra kinase assay (examples 1-99). As to conditions: ATP at Km (12 μM), read-out: Tyk2 inhibitory activity (pIC50 class) (converted). The gist of the method:
as §1
For orientation: In TR-FRET formats the signal depends on donor and acceptor labels being close together.

Another assay has as its target JAK 1 (Homo sapiens, UniProt P23458). Description: Biochemical potency on JAK1, TR-FRET LANCE Ultra kinase assay (examples 1-99). As to conditions: ATP at Km (20 μM), read-out: JAK1 inhibitory activity (pIC50 class) (converted). In outline:
as §1

Another assay has as its target JAK 2 (Homo sapiens, UniProt O60674). Kind of assay: Biochemical potency on JAK2, TR-FRET LANCE Ultra kinase assay (examples 1-99). As to conditions: ATP at Km (0.7 μM), read-out: JAK2 inhibitory activity (pIC50 class) (converted). In outline:
as §1

SMILES strings stand for the structures.

Sequence of JAK 1 (P23458 whole entry): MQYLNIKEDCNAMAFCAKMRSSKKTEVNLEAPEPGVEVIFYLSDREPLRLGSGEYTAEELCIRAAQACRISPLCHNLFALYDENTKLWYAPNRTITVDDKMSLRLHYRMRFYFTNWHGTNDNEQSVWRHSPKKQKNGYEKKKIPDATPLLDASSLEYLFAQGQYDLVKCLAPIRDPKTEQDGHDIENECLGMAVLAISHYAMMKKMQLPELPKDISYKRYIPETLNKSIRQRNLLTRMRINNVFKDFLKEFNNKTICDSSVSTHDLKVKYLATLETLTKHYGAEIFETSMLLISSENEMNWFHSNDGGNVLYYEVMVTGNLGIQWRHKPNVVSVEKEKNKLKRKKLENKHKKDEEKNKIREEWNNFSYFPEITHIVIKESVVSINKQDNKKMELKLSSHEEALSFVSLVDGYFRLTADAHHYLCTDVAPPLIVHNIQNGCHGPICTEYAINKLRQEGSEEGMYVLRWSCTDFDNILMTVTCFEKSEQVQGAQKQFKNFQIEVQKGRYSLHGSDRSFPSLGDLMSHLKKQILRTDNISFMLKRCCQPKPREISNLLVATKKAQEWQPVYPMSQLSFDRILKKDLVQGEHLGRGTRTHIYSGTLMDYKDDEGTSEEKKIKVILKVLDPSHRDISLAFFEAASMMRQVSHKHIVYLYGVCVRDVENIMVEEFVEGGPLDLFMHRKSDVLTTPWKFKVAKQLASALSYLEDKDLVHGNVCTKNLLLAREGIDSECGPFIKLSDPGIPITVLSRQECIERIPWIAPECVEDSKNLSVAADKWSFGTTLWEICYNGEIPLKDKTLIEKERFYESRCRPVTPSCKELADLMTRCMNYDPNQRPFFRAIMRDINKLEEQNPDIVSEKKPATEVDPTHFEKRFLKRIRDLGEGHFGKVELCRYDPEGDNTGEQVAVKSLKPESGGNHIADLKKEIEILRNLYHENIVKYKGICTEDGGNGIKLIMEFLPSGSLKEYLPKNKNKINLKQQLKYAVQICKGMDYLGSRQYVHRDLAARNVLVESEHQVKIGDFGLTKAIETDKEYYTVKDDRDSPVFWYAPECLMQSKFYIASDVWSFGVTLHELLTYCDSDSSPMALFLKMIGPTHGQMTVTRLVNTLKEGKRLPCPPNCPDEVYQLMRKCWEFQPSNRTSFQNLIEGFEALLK
Sequence of TYK2 (P29597 whole entry): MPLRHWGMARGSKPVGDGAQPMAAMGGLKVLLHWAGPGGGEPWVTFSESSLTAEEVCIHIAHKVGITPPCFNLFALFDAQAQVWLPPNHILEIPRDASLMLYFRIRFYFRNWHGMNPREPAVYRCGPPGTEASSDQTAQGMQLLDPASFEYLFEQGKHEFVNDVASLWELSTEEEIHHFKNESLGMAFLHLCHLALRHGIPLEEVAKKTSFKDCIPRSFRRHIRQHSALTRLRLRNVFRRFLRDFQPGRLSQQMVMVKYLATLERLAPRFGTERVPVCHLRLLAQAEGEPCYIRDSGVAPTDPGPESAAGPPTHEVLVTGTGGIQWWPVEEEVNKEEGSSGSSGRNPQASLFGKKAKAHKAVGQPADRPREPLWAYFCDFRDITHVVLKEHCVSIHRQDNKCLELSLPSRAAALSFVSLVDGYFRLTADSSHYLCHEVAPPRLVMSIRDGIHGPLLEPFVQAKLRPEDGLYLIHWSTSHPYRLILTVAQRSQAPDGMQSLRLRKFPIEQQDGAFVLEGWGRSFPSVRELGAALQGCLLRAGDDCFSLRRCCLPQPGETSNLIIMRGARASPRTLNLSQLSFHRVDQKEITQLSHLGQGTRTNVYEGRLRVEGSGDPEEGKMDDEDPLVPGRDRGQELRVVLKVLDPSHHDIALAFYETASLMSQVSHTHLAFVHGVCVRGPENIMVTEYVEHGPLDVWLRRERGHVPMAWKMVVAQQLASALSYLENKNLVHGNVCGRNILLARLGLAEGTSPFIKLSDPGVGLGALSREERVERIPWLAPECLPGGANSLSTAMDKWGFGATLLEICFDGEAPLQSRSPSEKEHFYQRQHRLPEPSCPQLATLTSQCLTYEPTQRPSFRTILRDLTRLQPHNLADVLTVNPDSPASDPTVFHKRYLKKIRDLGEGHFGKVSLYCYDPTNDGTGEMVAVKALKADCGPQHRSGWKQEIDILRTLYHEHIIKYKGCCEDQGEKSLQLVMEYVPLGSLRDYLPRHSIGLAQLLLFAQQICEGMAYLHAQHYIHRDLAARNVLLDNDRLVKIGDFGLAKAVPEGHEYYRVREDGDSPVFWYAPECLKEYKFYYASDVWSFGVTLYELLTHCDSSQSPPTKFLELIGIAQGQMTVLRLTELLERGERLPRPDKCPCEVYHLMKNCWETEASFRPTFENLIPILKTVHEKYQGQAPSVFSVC
Sequence of JAK 2 (O60674 whole entry): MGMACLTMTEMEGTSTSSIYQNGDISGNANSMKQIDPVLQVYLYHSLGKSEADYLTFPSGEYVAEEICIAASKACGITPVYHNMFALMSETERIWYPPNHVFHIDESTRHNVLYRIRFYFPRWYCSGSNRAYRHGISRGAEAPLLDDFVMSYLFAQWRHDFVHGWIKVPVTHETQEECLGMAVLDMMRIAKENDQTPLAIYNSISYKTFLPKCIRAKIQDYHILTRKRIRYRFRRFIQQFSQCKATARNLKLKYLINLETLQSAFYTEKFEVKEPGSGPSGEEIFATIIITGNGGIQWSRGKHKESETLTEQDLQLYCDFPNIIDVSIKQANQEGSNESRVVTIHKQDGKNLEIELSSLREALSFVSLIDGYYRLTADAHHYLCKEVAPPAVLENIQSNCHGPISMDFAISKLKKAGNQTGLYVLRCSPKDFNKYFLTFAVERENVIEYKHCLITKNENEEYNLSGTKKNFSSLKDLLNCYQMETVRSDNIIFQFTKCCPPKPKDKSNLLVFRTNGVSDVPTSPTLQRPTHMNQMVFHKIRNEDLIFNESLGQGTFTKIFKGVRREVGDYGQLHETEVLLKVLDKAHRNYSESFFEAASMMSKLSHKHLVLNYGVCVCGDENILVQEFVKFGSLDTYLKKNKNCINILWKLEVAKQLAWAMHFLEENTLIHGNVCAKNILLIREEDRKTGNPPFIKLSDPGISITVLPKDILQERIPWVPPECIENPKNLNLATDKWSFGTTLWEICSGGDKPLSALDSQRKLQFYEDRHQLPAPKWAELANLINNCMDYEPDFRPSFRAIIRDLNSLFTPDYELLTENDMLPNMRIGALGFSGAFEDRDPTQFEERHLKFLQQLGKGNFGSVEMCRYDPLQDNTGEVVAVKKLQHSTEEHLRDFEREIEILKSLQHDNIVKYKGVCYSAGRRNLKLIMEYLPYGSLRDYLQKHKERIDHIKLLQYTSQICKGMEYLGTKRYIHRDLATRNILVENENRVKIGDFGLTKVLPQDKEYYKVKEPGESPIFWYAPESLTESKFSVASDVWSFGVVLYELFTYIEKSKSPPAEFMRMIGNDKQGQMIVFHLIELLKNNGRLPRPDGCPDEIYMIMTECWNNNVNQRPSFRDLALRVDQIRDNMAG

Take `CN(C)[C@H]1C[C@@H](NC(=O)c2nn(-c3cc(Cl)ccc3OC(F)F)c3cc(-c4cnn5cccnc45)ncc23)C1` [Example 36, 1-(5-chloro-2-(difluoromethoxy)phenyl)-N-((1s,3s)-3-(dimethylamino)cyclobutyl)-6-(pyrazolo[1,5-a]pyrimidin-3-yl)-1H-pyrazolo[4,3-c]pyridine-3-carboxamide]: the IC50 at JAK 3 was 5.01 to 50.1 nM; on TYK2, greater than 50.1 nM; at JAK 1, 5.01 to 50.1 nM; on JAK 2, 5.01 to 50.1 nM.

As for `CSc1ccc(OC(F)F)c(-n2nc(C(=O)NCCCN(C)C)c3cnc(-c4cnn5cccnc45)cc32)c1` [Example 37, 1-(2-(difluoromethoxy)-5-(methylthio)phenyl)-N-(3-(dimethylamino)propyl)-6-(pyrazolo[1,5-a]pyrimidin-3-yl)-1H-pyrazolo[4,3-c]pyridine-3-carboxamide], the IC50 is no more than 5.01 nM at JAK 3, 5.01 to 50.1 nM on TYK2, no more than 5.01 nM on JAK 1 and no more than 5.01 nM on JAK 2.

On to `COc1ccc(F)cc1-n1nc(C(=O)NCCCN(C)C)c2cnc(-c3cnn4cccnc34)cc21` [Example 38, N-(3-(dimethylamino)propyl)-1-(5-fluoro-2-methoxyphenyl)-6-(pyrazolo[1,5-a]pyrimidin-3-yl)-1H-pyrazolo[4,3-c]pyridine-3-carboxamide], for which the IC50 on JAK 3 was 5.01 to 50.1 nM; on TYK2, greater than 50.1 nM; on JAK 1 it was 5.01 to 50.1 nM; on JAK 2, 5.01 to 50.1 nM.

For the molecule `COc1ccc(Cl)cc1-n1nc(N)c2cnc(-c3cnn4cccnc34)cc21` [Example 39, 1-(5-chloro-2-methoxyphenyl)-6-(pyrazolo[1,5-a]pyrimidin-3-yl)-1H-pyrazolo[4,3-c]pyridin-3-amine], the IC50 on JAK 3 is no more than 5.01 nM; at TYK2 it was 5.01 to 50.1 nM; at JAK 1, no more than 5.01 nM; on JAK 2 it was no more than 5.01 nM.

For the molecule `COc1ccc(Cl)cc1-n1nc(NC(C)=O)c2cnc(-c3cnn4cccnc34)cc21` [Example 40, N-(1-(5-chloro-2-methoxyphenyl)-6-(pyrazolo[1,5-a]pyrimidin-3-yl)-1H-pyrazolo[4,3-c]pyridin-3-yl)acetamide], the IC50 at JAK 3 is no more than 5.01 nM; on TYK2, 5.01 to 50.1 nM; at JAK 1, no more than 5.01 nM; on JAK 2, no more than 5.01 nM.

`CNc1nn(-c2cc(Cl)ccc2OC)c2cc(-c3cnn4cccnc34)ncc12` [Example 41, 1-(5-chloro-2-methoxyphenyl)-N-methyl-6-(pyrazolo[1,5-a]pyrimidin-3-yl)-1H-pyrazolo[4,3-c]pyridin-3-amine]: the IC50 at JAK 3 is no more than 5.01 nM; on TYK2 it was 5.01 to 50.1 nM; on JAK 1 it was no more than 5.01 nM; on JAK 2 it was no more than 5.01 nM.

Turning to `COc1ccc(Cl)cc1-n1nc(N(C)C)c2cnc(-c3cnn4cccnc34)cc21` [Example 42, 1-(5-chloro-2-methoxyphenyl)-N,N-dimethyl-6-(pyrazolo[1,5-a]pyrimidin-3-yl)-1H-pyrazolo[4,3-c]pyridin-3-amine], the IC50 on JAK 3, at TYK2, on JAK 1 and at JAK 2 was 5.01 to 50.1 nM in each case.

Turning to `COc1ccc(S(C)(=O)=O)cc1-n1nc(NCCN2CCOCC2)c2cnc(-c3cnn4cccnc34)cc21` [Example 43, 1-(2-methoxy-5-(methylsulfonyl)phenyl)-N-(2-morpholinoethyl)-6-(pyrazolo[1,5-a]pyrimidin-3-yl)-1H-pyrazolo[4,3-c]pyridin-3-amine], the IC50 was 5.01 to 50.1 nM on JAK 3, greater than 50.1 nM at TYK2, 5.01 to 50.1 nM at JAK 1 and 5.01 to 50.1 nM at JAK 2.

Turning to `COc1ccc(C(F)F)cc1-n1nc(NCCN(C)C)c2cnc(-c3cnn4cccnc34)cc21` [Example 44, N1-(1-(5-(difluoromethyl)-2-methoxyphenyl)-6-(pyrazolo[1,5-a]pyrimidin-3-yl)-1H-pyrazolo[4,3-c]pyridin-3-yl)-N2,N2-dimethylethane-1,2-diamine], the IC50 was 5.01 to 50.1 nM at JAK 3, 5.01 to 50.1 nM at TYK2, 5.01 to 50.1 nM at JAK 1 and no more than 5.01 nM on JAK 2.

Regarding `COc1ccc(C)cc1-n1nc(NCCN(C)C)c2cnc(-c3cnn4cccnc34)cc21` [Example 45, N1-(1-(2-methoxy-5-methylphenyl)-6-(pyrazolo[1,5-a]pyrimidin-3-yl)-1H-pyrazolo[4,3-c]pyridin-3-yl)-N2,N2-dimethylethane-1,2-diamine], the IC50 at JAK 3 was 5.01 to 50.1 nM; at TYK2, greater than 50.1 nM; on JAK 1, 5.01 to 50.1 nM; at JAK 2, 5.01 to 50.1 nM.

For the molecule `CSc1ccc(OC(F)F)c(-n2nc(NCCCN(C)C)c3cnc(-c4cnn5cccnc45)cc32)c1` [Example 46, N1-(1-(2-(difluoromethoxy)-5-(methylthio)phenyl)-6-(pyrazolo[1,5-a]pyrimidin-3-yl)-1H-pyrazolo[4,3-c]pyridin-3-yl)-N3,N3-dimethylpropane-1,3-diamine], the IC50 on JAK 3 was no more than 5.01 nM; on TYK2, 5.01 to 50.1 nM; at JAK 1, 5.01 to 50.1 nM; at JAK 2 it was no more than 5.01 nM.

With `COc1ccc(Cl)cc1-n1nc(N2CCN(C(C)=O)CC2)c2cnc(-c3cnn4cccnc34)cc21` [Example 47, 1-(4-(1-(5-chloro-2-methoxyphenyl)-6-(pyrazolo[1,5-a]pyrimidin-3-yl)-1H-pyrazolo[4,3-c]pyridin-3-yl)piperazin-1-yl)ethan-1-one], the IC50 at JAK 3 is 5.01 to 50.1 nM; on TYK2 it was greater than 50.1 nM; at JAK 1, 5.01 to 50.1 nM; on JAK 2, 5.01 to 50.1 nM.

As for `COc1ccc(Cl)cc1-n1nc(N2CCNCC2)c2cnc(-c3cnn4cccnc34)cc21` [Example 48, 1-(5-chloro-2-methoxyphenyl)-3-(piperazin-1-yl)-6-(pyrazolo[1,5-a]pyrimidin-3-yl)-1H-pyrazolo[4,3-c]pyridine], the IC50 on JAK 3, on TYK2, at JAK 1 and on JAK 2 was 5.01 to 50.1 nM throughout.

`COc1ccc(Cl)cc1-n1nc(N2CC(CO)C2)c2cnc(-c3cnn4cccnc34)cc21` [Example 49, (1-(1-(5-chloro-2-methoxyphenyl)-6-(pyrazolo[1,5-a]pyrimidin-3-yl)-1H-pyrazolo[4,3-c]pyridin-3-yl)azetidin-3-yl)methanol]: the IC50 at JAK 3, at TYK2, at JAK 1 and on JAK 2 was 5.01 to 50.1 nM throughout.

Take `COc1ccc(Cl)cc1-n1nc(OC)c2cnc(-c3cnn4cccnc34)cc21` [Example 50, 1-(5-chloro-2-methoxyphenyl)-3-methoxy-6-(pyrazolo[1,5-a]pyrimidin-3-yl)-1H-pyrazolo[4,3-c]pyridine]: the IC50 at JAK 3, on TYK2, at JAK 1 and at JAK 2 was 5.01 to 50.1 nM throughout.

On to `COc1ccc(Cl)cc1-n1ncc2c(N(C)C)nc(-c3cnn4cccnc34)cc21` [Example 51, 1-(5-chloro-2-methoxyphenyl)-N,N-dimethyl-6-(pyrazolo[1,5-a]pyrimidin-3-yl)-1H-pyrazolo[4,3-c]pyridin-4-amine], for which the IC50 at JAK 3 was 5.01 to 50.1 nM; at TYK2, greater than 50.1 nM; on JAK 1, 5.01 to 50.1 nM; on JAK 2 it was 5.01 to 50.1 nM.

Take `CNc1nc(-c2cnn3cccnc23)cc2c1cnn2-c1cc(Cl)ccc1OC` [Example 52, 1-(5-chloro-2-methoxyphenyl)-N-methyl-6-(pyrazolo[1,5-a]pyrimidin-3-yl)-1H-pyrazolo[4,3-c]pyridin-4-amine]: the IC50 at JAK 3 is greater than 50.1 nM; on TYK2, greater than 50.1 nM; at JAK 1 it was greater than 50.1 nM; at JAK 2, 5.01 to 50.1 nM.
